Experimental data taken from patent US20240325369A1 (priority 2021, published 2024).

Experimental: Efficacy objectives were evaluated for subjects meeting the biomarker selection criteria described in the protocol. All subjects were monitored for safety during the study period, and up to 30 days after the last dose of study drug. Treatment continued until disease progression, unacceptable toxicity, death, or termination of the study by the sponsor.
Serum PSA, CTCs, survival status, SSEs were also collected. PROs included the BPI-SF, FACT-P, and EQ-5D-5L questionnaires. Safety assessments included recording of AEs, physical examinations, vital signs, ECGs, and ECOG performance status. Clinical laboratory testing included hematology, blood chemistry, and liver function parameters. Blood samples were also taken for pharmacokinetic assessments and biomarker analysis. Archival or recently collected tumor tissue samples were obtained from consenting subjects for biomarker identification.
All AEs reported on or after the date of first dose until 30 days (inclusive) after the last dose of study drug were considered treatment-emergent and were summarized. […] In addition. AE incidence rates were also summarized by severity and relationship to study drug. Treatment-related AEs were those judged by the investigator to beat least possibly related to the study drug. […] Deaths that occurred within 30 days after the last dose of study drug were defined as on-study deaths. No inferential statistical analyses were performed in analyzing the safety data.

[1] = safety population (289 subjects)
[2] = safety population (289 subjects), 300 mg once daily
[3] = safety population (289 subjects), data cutoff 26 Jan. 2021
[4] = safety population, 300 mg once daily

## NC(=O)c1cccc2cn(-c3ccc([C@@H]4CCCNC4)cc3)nc12 [Niraparib, 2-[4-[(3S)-piperidin-3-yl]phenyl]-2H-indazole-7-carboxamide]
289 enrolled subjects, clinical data cutoff 26 Jan. 2021
  Treatment discontinuation because of adverse events (reason for discontinuation): 14%
Heavily pre-treated prostate cancer population
  Safety profile: manageable
[1]
  Deaths due to treatment-emergent AEs, % of subjects: 5.5%
  Deaths due to treatment-emergent AEs, number of subjects: 16
  Deaths within 30 days of the last dose due to progressive disease, % of subjects: 6%
  Deaths within 30 days of the last dose due to progressive disease, number of subjects: 17
[2]
  AEs leading to treatment discontinuation, % of subjects: 22.8%
  Adverse event of clinical interest (all grades): anemia: 54.0%
  Adverse event of clinical interest (all grades): febrile neutropenia: 1.0%
  Adverse event of clinical interest (all grades): neutropenia: 19.4%
  Adverse event of clinical interest (all grades): thrombocytopenia: 34.3%
  Grade 3 or 4 AE: anemia: 32.9%
  Grade 3 or 4 AE: fatigue: 6.6%
  Grade 3 or 4 AE: nausea: 5.2%
  Grade 3 or 4 AE: neutropenia: 9.7%
  Grade 3 or 4 AE: thrombocytopenia: 16.3%
  Grade 3 or 4 AEs, % of subjects: 75.1%
  Grade 4 AE: thrombocytopenia, % of subjects: 8.0%
  Grade 4 AE: thrombocytopenia, number of subjects: 23
  Subjects reporting SAEs: 46.4%
  Subjects who experienced at least 1 AE: 99.7%
  Subjects who reported a related AE: 90%
[3]
  Deaths within 30 days of the last dose of study drug, % of subjects: 9%
  Deaths within 30 days of the last dose of study drug, number of subjects: 26
[4]
  Grade 3 or 4 clinical chemistry value: hyperkalemia: 2.5%
  Grade 3 or 4 clinical chemistry value: hyponatremia: 3.2%
  Grade 3 or 4 clinical chemistry value: increased GGT: 5.0%
  Grade 3 or 4 clinical chemistry value: increased alkaline phosphatase: 2.5%
  Grade 3 or 4 hematology value: anemia: 17.0%
  Grade 3 or 4 hematology value: decreased lymphocyte count: 18.4%
